The values below come from article PMC6273209, “Evaluation of the Enantiomer Specific Biokinetics and Radiation Doses of [^18F]Fluspidine—A New Tracer in Clinical Translation for Imaging of σ1 Receptors” (Molecules, 2016).

Some results are limits rather than exact numbers.

The nature of data set [1]: Acute toxicity study, single intravenous injection. The format is in vivo. Conditions: single intravenous administration, Wistar rats, day 2 and day 15; highest tested dose. From the text:
Supplementary Materials: Evaluation of the Enantiomer Specific Biokinetics and Radiation Doses of [18F]Fluspidine—A New Tracer in Clinical
Translation for Imaging of σ1 Receptors […]
Supplemental Methods and Results
Animal Toxicity Study of (S)-(−)-Fluspidine
The purpose of this study was to assess the acute toxicity of (S)-(−)-fluspidine when administered by a single intravenous injection to rats followed by an observation period of 2 or 15 day (in accordance with EU cGLP). Briefly, the study was performed with 4 test groups, including 1 control (saline and dimethylsulfoxide) and 3 dose groups (6.2, 62 and 620 µg/kg, (S)- (−)ﬂuspidine), with Wistar rats (60 m, 60 f, 12 weeks) divided into two experiments: day 2 (40 males and 40 females) and day 15 (20 males and 20 females). The animals were weighted and allocated to the test groups based on their actual body weights. The animals were sacrificed at two time periods (day 2 and day 15 after test item administration) and then examined macroscopically and histopathologically. In addition the following parameters were evaluated: mortality, clinical observation (spasms, tremor and hyperactivity), body weights, food consumption, haematology (white blood cells, red blood cells, hemoglobin, hematocrit, mean corpuscular volume, mean corpuscular hemoglobin, platelets, lympohcytes, neutrophils, eosinophils, basophils, monocytes), clinical chemistry (alkaline phosphatase, aspartate aminotransferase, alanine aminotransferase, glucose, cholesterol, triacylglycerols, creatinine, urea, bilirubin, albumin, calcium, phosphorus, sodium, potassium chloride), pathology and histopathology. […]
in either gender were detected. The food consumption corresponded with body weight development. All haematology parameter´s values on day 2 and day 15 were within physiological range for this species. Individual divergences of some values of the haematology parameters were slight and not connected with treatment.
There were no findings in clinical chemistry parameters which could be definitively considered as adverse. The average values of all test groups were within the historical control ranges. Occasional changes had no dose relationship, they were considered to be a result of intraindividual and interindividual variability for this species. […]
histopathological parameters on day 2 and day 15. The no observed effect level (NOEL) of (S)- (−)-fluspidine after single intravenous administration in this study for both day 2 and day 15 was determined to be 620 µg/kg.

A further data set addresses σ1 receptors. Set-up: method as in PMID 24130175. The following applies: read-out: Ki (affinity towards σ1 receptors); cited from earlier work.

In general, Ki refers to a measure of affinity in units of concentration, obtained from inhibition or displacement. `FCC[C@@H]1OC2(CCN(Cc3ccccc3)CC2)c2ccccc21` [(S)-(−)-[^18F]fluspidine]: the “no observed effect level (NOEL)” value in data set [1] was at least 0.6 mg/kg. The Ki on σ1 receptors was 2.3 nM.
